The values below come from US20250296940A1, “ANNULATED 2-AMINO-3-CYANO THIOPHENES AND DERIVATIVES FOR THE TREATMENT OF CANCER” (Boehringer Ingelheim Int'l GmbH Corp., priority 2021, published 2025).

Molecules are shown by their SMILES.

Data set [1] addresses Ba/F3 KRASG12C cells (Homo sapiens, UniProt P01116, G12C, cells depend on it). Put plainly: Ba/F3 cell model proliferation assay (AlamarBlue, 72 h). The following applies: without IL-3, read-out: IC50 Ba/F3 KRASG12C. It is filed as cell-based. The procedure: Plasmids containing KRASG12 mutants were obtained from GeneScript. […] Retrovirus was added to Ba/F3 cells. To ensure infection, 4 μg/mL polybrene was added and cells were spinfected. […] As a control, parental Ba/F3 cells were used to show selection status. Selection was considered successful when parental Ba/F3 cells cultures died. […] Ba/F3 cells harboring the empty vector were used as a control. Approximately ten days before conducting the experiments, puromycin was left out.
Compounds were added using an Access Labcyte Workstation with a Labcyte Echo 550 or 555 acoustic dispenser. All treatments were performed in technical duplicates. The assay is run using a fully automated robotic system. […] AlamarBlue™ (ThermoFisher), a viability stain, was added and fluorescence measured in the PerkinElmer Envision HTS Multilabel Reader. The raw data were imported into and analyzed with the Boehringer Ingelheim proprietary software MegaLab (curve fitting based on the program PRISM, GraphPad Inc.).

The target of data set [2] is T1, protein-protein interaction between SOS1 and KRAS G12C (Homo sapiens, UniProt P01116, C118S/C51S/C80L/G12C).
T1 construct: His6 (N); SOS1: in-house or Viva Biotech Ltd; host or cells: E. coli (KRAS)
The data set is described as follows: KRAS::SOS1 AlphaScreen Binding Assay. The following applies: Table 20, compounds (I); 7.5 nM KRAS G12C, 10 μM GDP, 5 nM GST-SOS1. The text has this: This assay can be used to examine the potency with which compounds according to the invention binding to KRAS G12C inhibit the protein-protein interaction between SOS1 and KRAS G12C. […] Low IC50 values in this assay setting are indicative of strong inhibition of protein-protein interaction between SOS1 and KRAS:
• GST-tagged SOS1 (564_1049_GST_TEV_ECO) produced in-house • GST-TEV-SOS1 (564-1049) is purchased from Viva Biotech Ltd. • The expression construct of KRAS G12C (amino acids 1-169 of reference sequence P01116-2 (uniprot), with additional mutations: C51S, C80L, and C118S) containing a C-terminal avi-tag was obtained by gene synthesis (GeneArt, Thermo Fisher) in donor vector (pDONR-221) and transferred by recombinant cloning into pDEST17 vector bearing an N-terminal His6-tag. The protein was expressed in E. coli and the purified protein was biotinylated with the E. coli biotin ligase (BirA) before usage. • GDP (Sigma Cat No G7127) • AlphaLISA Glutathione Acceptor Beads (PerkinElmer, Cat No AL109) • AlphaScreen Streptavidin Donor Beads (PerkinElmer Cat No 6760002) • Assay plates: Proxiplate-384 PLUS, white (PerkinElmer, Cat No 6008289)
7.5 nM (final assay concentration) KRAS G12C, 10 μM (final assay concentration) GDP and 5 nM (final assay concentration) GST-SOS1 are mixed in assay buffer prior to use and kept at room temperature.
AlphaLISA Glutathione Acceptor Beads and AlphaScreen Streptavidin Donor Beads are mixed in assay buffer at a concentration of 10 μg/mL (final assay concentration) each prior to use and kept at room temperature.
Compounds are diluted to a final start concentration of 100 μM and are tested in duplicate. Assay-ready plates (ARPs) are generated using an Access Labcyte Workstation with a Labcyte Echo 550 or 555 acoustic dispenser. For compound a start concentration of 100 μM, 150 nL of compound solution is transferred per well in 11 concentrations in duplicate with serial 1:5 dilutions.
The assay is run using a fully automated robotic system in a darkened room below 100 Lux. 10 μL of KRAS::SOS1 GDP mix is added into columns 1-24 to the 150 nL of compound solution (final dilution in the assay 1:100, final DMSO concentration 1%).
After 30 minutes incubation time 5 μL of bead mix is added into columns 1-23. Plates are kept at room temperature in a darkened incubator. After further 60 minutes incubation, the signal is measured using a PerkinElmer Envision HTS Multilabel Reader using the AlphaScreen specifications from PerkinElmer. Each plate contains the following controls: • diluted DMSO+KRAS::SOS1 GDP mix+bead mix • diluted DMSO+KRAS::SOS1 GDP mix
IC50 values are calculated and analyzed using a 4 parametric logistic model.
Tables of example compounds disclosed herein contain IC50 values determined using the above assay.

The nature of data set [3]: Caco-2 assay. It is filed as in vitro ADME. The conditions noted are these: human, 10 μM compound; for Papp A→B at 90 min, 10 μM: apical to basolateral, pH 7.4, read-out: Caco PappAB; for efflux ratio at 90 min, 10 μM: efflux ratio PappBA/PappAB, pH 7.4, read-out: Caco ER. An excerpt: The assay provides information on the potential of a compound to pass the cell membrane, on the extent of oral absorption as well as on whether the compound is actively transported by uptake and/or efflux transporters. Permeability measurements across polarized, confluent Caco-2 cell monolayers grown on permeable filter supports (Corning, catalog #3391) are used. […] The receiver and donor compartments contain 0.25% bovine serum albumine (BSA) in assay buffer. Passive diffusion and/or active transport of compounds across the monolayer is measured in both apical to basolateral (a-b) and basolateral to apical (b-a) direction. a-b permeability (PappAB) represents drug absorption from the intestine into the blood and b-a permeability (PappBA) drug secretion from the blood back into the intestine via both passive permeability as well as active transport mechanisms mediated by efflux and uptake transporters that are expressed on the Caco-2 cells. After a pre-incubation of 25-30 min at 37° C., at predefined time points (0, 30, 60 and 90 min), samples were taken from the receiver and donor compartment, respectively. Concentrations of test compounds in samples were measured by HPLC/MS/MS, samples from the donor compartment were diluted 1:50 (v:v) with assay buffer, samples from receiver compartment were measured without dilution.
Apparent permeabilities in a-b (PappAB) and b-a (PappBA) directions are calculated according to the formula:
[formula] • Vrec [mL]: buffer volume in receiver compartment • Cdon [μmol/mL]: concentration of test compound in donor compartment at t=0 • ΔCrec: difference between concentrations of test compound in receiver compartment at start and end of incubation time • Δt: Incubation time • Vrec·ΔCrec/Δt [μmol/min]: Amount of compound transferred to receiver compartment per time • A [cm^2]: filter surface
Caco-2 efflux ratios (ER) are calculated as the ratio of PappBA/PappAB.
Data obtained with the disclosed assay for a selection of compounds (I) according to the invention: […]

T1 sequence (P01116 1-169 isoform P01116-2 G12C/C51S/C80L/C118S): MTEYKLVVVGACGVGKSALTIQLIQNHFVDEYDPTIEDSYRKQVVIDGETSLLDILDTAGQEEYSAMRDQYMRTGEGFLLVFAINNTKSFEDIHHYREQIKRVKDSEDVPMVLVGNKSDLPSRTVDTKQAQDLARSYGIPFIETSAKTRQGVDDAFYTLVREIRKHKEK
Chain of Ba/F3 KRASG12C cells (P01116 whole entry G12C): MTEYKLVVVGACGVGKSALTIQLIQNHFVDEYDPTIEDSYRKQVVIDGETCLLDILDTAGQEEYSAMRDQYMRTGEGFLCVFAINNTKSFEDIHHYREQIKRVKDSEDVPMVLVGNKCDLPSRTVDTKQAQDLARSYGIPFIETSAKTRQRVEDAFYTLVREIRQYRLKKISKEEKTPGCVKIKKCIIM

As for `C=C(F)C(=O)N1[C@@H](C)CN(c2cc(O[C@@H](C)[C@@H]3CCCN3C)nc(-c3onc4c3CCC[C@@]43CCCc4sc(N)c(C#N)c43)n2)C[C@@H]1C` [Ia-1], the GI50 in data set [1] was 0.8 nM. The IC50 (as a rule, the midpoint of a concentration-inhibition curve) in data set [2] was found to be 1.6 nM. Moreover, in data set [3], the Papp A→B at 90 min, 10 μM was determined as 4.4 ×10⁻⁶ cm/s and the efflux ratio at 90 min, 10 μM worked out at 3.6.
The matching figures for `C=CC(=O)N1[C@@H](C)CN(c2cc(O[C@@H](C)[C@@H]3CCCN3C)nc(-c3onc4c3CCC[C@@]43CCCc4sc(N)c(C#N)c43)n2)C[C@@H]1C` [Ia-2]: 0.1 nM, less than 1.5 nM, 2.9 ×10⁻⁶ cm/s and 8.6.
For `C=C(F)C(=O)N1[C@@H](C)CN(c2cc(-c3onc4c3CCC[C@@]43CCCc4sc(N)c(C#N)c43)nc(O[C@@H](C)[C@@H]3CCCN3C)n2)C[C@@H]1C` [Ia-3], the GI50 in data set [1] worked out at 3.7 nM. The compound also returned an IC50 in data set [2] of 4 nM.
For `C=CC(=O)N1[C@@H](C)CN(c2cc(-c3onc4c3CCC[C@@]43CCCc4sc(N)c(C#N)c43)nc(O[C@@H](C)[C@@H]3CCCN3C)n2)C[C@@H]1C` [Ia-4], the GI50 in data set [1] is 0.1 nM. The same compound displayed a 50% inhibitory concentration (IC50) in data set [2] of 1.6 nM. In data set [3], the Papp A→B at 90 min, 10 μM was 1.3 ×10⁻⁶ cm/s and the efflux ratio at 90 min, 10 μM came to 30.7.
The corresponding values for `C[C@H](Oc1cc(N2C[C@H](C)N(C(=O)/C=C/CF)[C@@H](C)C2)nc(-c2noc3c2CCC[C@@]32CCCc3sc(N)c(C#N)c32)n1)[C@@H]1CCCN1C` [Ib-1] are 0.5 nM, 1.7 nM, 0.8 ×10⁻⁶ cm/s and 28.6.
Consider `C=CC(=O)N1CCN(c2cc(O[C@@H](C)[C@@H]3CCCN3C)nc(-c3noc4c3CCC[C@@]43CCCc4sc(N)c(C#N)c43)n2)CC12CC2` [Ib-2], for which, in data set [1], the GI50 stood at 0.3 nM. The same compound yielded a concentration for half-maximal inhibition (IC50) in data set [2] of 1.3 nM. In addition, the efflux ratio at 90 min, 10 μM in data set [3] was determined as 18.2.
Regarding `C=CC(=O)N1[C@@H](C)CN(c2cc(O[C@@H](C)[C@@H]3CCCN3C)nc(-c3noc4c3CCC[C@@]43CCCc4sc(N)c(C#N)c43)n2)C[C@@H]1C` [Ib-3], the GI50 in data set [1] turned out to be 0.2 nM. In data set [2], this compound displayed an IC50 of 1.5 nM. Also, in data set [3], the Papp A→B at 90 min, 10 μM amounted to 6.3 ×10⁻⁶ cm/s and the efflux ratio at 90 min, 10 μM worked out at 3.
The corresponding values for `C=CC(=O)N1[C@@H](C)CN(c2cc(-c3noc4c3CCC[C@@]43CCCc4sc(N)c(C#N)c43)nc(O[C@@H](C)[C@@H]3CCCN3C)n2)C[C@@H]1C` [Ib-4] are 0.1 nM, 1.4 nM, 3.1 ×10⁻⁶ cm/s and 12.3.
Consider `C=C(F)C(=O)N1[C@@H](C)CN(c2cc(O[C@@H](C)[C@@H]3CCCN3C)nc(-c3noc4c3CCC[C@@]43CCCc4sc(N)c(C#N)c43)n2)C[C@@H]1C` [Ib-5], for which the GI50 in data set [1] amounted to 0.5 nM. The same compound came in with a half-inhibitory concentration (IC50) in data set [2] of 1.6 nM. Moreover, in data set [3], the Papp A→B at 90 min, 10 μM was 11 ×10⁻⁶ cm/s and the efflux ratio at 90 min, 10 μM is 1.1.
The corresponding values for `C=C(F)C(=O)N1[C@@H](C)CN(c2cc(-c3noc4c3CCC[C@@]43CCCc4sc(N)c(C#N)c43)nc(O[C@@H](C)[C@@H]3CCCN3C)n2)C[C@@H]1C` [Ib-6] are 1.6 nM, 2.1 nM, 9.2 ×10⁻⁶ cm/s and 1.7.
The matching figures for `C[C@H](Oc1nc(-c2noc3c2CCC[C@@]32CCCc3sc(N)c(C#N)c32)cc(N2C[C@H](C)N(C(=O)/C=C/CF)[C@@H](C)C2)n1)[C@@H]1CCCN1C` [Ib-7]: 1.6 nM, 3.1 nM, 2.4 ×10⁻⁶ cm/s and 10.4.
Turning to `C[C@H](Oc1nc(-c2noc3c2CCC[C@@]32CCCc3sc(N)c(C#N)c32)cc(N2C[C@H](C)N(C(=O)/C=C/c3cccnc3)[C@@H](C)C2)n1)[C@@H]1CCCN1C` [Ib-8], the GI50 in data set [1] is 25.1 nM. Also, the IC50 in data set [2] came out at 3.2 nM.
On to `COC/C=C/C(=O)N1[C@@H](C)CN(c2cc(-c3noc4c3CCC[C@@]43CCCc4sc(N)c(C#N)c43)nc(O[C@@H](C)[C@@H]3CCCN3C)n2)C[C@@H]1C` [Ib-9], for which the GI50 in data set [1] came to 15.1 nM. For the same compound, in data set [2], the concentration for half-maximal inhibition (IC50) came to 6.2 nM. Besides, in data set [3], the Papp A→B at 90 min, 10 μM came to 2.4 ×10⁻⁶ cm/s and the efflux ratio at 90 min, 10 μM came to 7.5.
